The text below walks through data of patent US20130184318A1, “[…] […]” (THE REGENTS OF THE UNIVERSITY OF CALIFORNIA, priority 2010, published 2013).

Holding throughout (assay type): cell-based, human
In one assay the test system is myocilin. Briefly: Western blot of myocilin protein in HTM 631 cells. As to conditions: HTM 631 cells on 400 nm pitch surfaces with dexamethasone.
Assay [1] relates to HTM cells. The assay can be described thus: AFM measurement of Young's modulus (compliance) of HTM cells before and after Lat-B exposure. As to conditions: for HTM Cell Modulus on Substrates, Glass: glass (GPa range), pre-dose 2.7 ± 0.7; for HTM Cell Modulus on Substrates, Homeomimetic: homeomimetic gel E = 4.0 ± 1.5 kPa, pre-dose 1.6 ± 0.2; for HTM Cell Modulus on Substrates, Pathomimetic: pathomimetic gel E = 92 ± 10 kPa, pre-dose 1.8 ± 0.5. How it is done:
(§1) Primary HTM cells were obtained from corneal buttons from donors with no ocular diseases and that were not suitable for transplant. […] Cells were plated onto glass surfaces at 100,000 cells per surface. A similar number of cells were plated onto the biomimetic PA hydrogels. The cells were allowed to attach to the surfaces for 12 hours prior to the start of the experiment. Fluorescent images of the actin cytoskeleton were obtained from fixed cells stained with phalloidin-AlexaFluor 568 (Invitrogen, Carlsbad, Calif.). Fluorescent images of the cell membrane were obtained from live cells stained with wheat germ agglutinin-AlexaFluor 488 (Invitrogen).
The PA gels were then adhered to UV-cleaned, glass-bottom petri dishes (World Precision Instruments, Sarasota, Fla.), incubated in HTM medium for 12 hours, and then coated with a mixture of fibronectin and collagen (FNC coating mix, Athena Environmental Sciences, Baltimore, Md.) for 10 minutes prior to cell seeding. HTM cells were added to these dishes in media and were allowed to incubate overnight to ensure proper cell adhesion to the FNC-coated PA gels. Immediately prior to AFM measurements, the HTM media was rinsed away with PBS. This was done because fetal bovine serum is known to inactivate Lat-B (Spector, et al., (1989) Cell Motil Cytoskeleton 13:127-144).
The contact mechanics of the PA substrates and the HTM cells were studied with two MFP-3D atomic force microscopes (Asylum Research, Santa Barbara, Calif.) interfaced with either an Olympus (FluoView 1000 laser scanning confocal microscope, Olympus America, Center Valley, Pa.) or Zeiss (Axio Observer A1, Carl Zeiss, Thornwood, N.Y.) inverted microscope. No differences in contact mechanics of the samples were observed between the two instruments. The AFM probes in the substrate studies were silicon nitride cantilevers (PNP-TR-50, k=60 pN/nm, NanoAndMore, Lady's Island, S.C.) with a square pyramid tip incorporated at the free end. For each experiment, the actual spring constant of the cantilever was determined by monitoring the amplitude of the lever's thermal vibration at resonance and applying the equipartition theorem (Hutter, et al., (1993) Review of Scientific Instruments 64:3342-3342). Probe indentation measurements were obtained over the central region of the cell where the nucleus was present.
Compliance of the HTM cells and PA gels was quantified by fitting the force, generated by the indenting probe, vs. the depth of indentation with equation 1 (Hertz, H. (1882) J. Reine Angew. Mathematik 92:156-171; Love, A. E. H. (1939) Quarterly Journal of Mathematics 10:161-175; Harding, et al., (1945) Proceedings of the cambridge philosophical society 41:16-26).
Where α is the half-angle opening of the square pyramid tip (35°), ν is Poisson's ratio, E is Young's modulus and δ is the penetration depth. By using Eq. 1, we have assumed that the HTM cells and PA gels were perfectly elastic, isotropic, and infinitely thick and that the square pyramid indenter was a rigid cone. A Poisson ratio of 0.5 (incompressible) for both the cell and polyacrylamide gels was assigned, since both samples were well hydrated. This allows a solution for Young's modulus of the sample.
Application of Eq. 1 is not straightforward, as both the cells and gels were not perfectly elastic or isotropic, they were viscoelastic and anisotropic, and they were also not infinitely thick. However, in the limit of small indentations both the cells and gels were well described by Eq. 1. The method proposed by Mahaffey et al., (Phys Rev Lett (2000) 85:880-883) was applied to quantitatively define the indentation depth over which these viscoelastic materials behave as elastic bodies. This is accomplished by plotting experimental values of E vs. δ during tip indentation and noting the penetration depth over which E remains constant. […]

The subject of assay [2] is HTM cells. Briefly: Confocal/fluorescence imaging of HTM cell morphology on latrunculin exposure and recovery. As to conditions: for cell morphology: 0.2 μM latrunculin. How it is done: as §1
Latrunculin B influences cytoskeleton of cells by associating with actin. […] The micrographs were taken with a confocal AFM. The live HTM cells were labeled with fluorescent wheat germ agglutinin and the latrunculin was added. […] Measurements of compliance were taken prior to the introduction of drug, and at the 30 minute time point. The cells had moduli of 2.0 kPa prior to addition of latrunculin, and 0.07 kPa at 30 minutes. The concentration of drug used was not in the range of 1-100 μM used in other published studies. It should be noted, however, that the higher ranges (100 μM) were topically applied to primate eyes (20 μl) in one bolus while our studies had the drug present during the entire one hour time period. The effects of the latrunculin were profound.
The morphology of HTM cells adhered to glass and the glaucomatous (pathomimetic)polyacrylamide gel (PPA, 92.2±10.4 kPa) substrates were predominantly elongated with pronounced asymmetry. On the homeomimetic polyacrylamide gel (HPA, 4.0±1.5 kPa), the cells were predominantly adhered in a radially symmetric fashion and were considerably rounder in appearance (See, FIGS. 6 and 10). When exposed to Lat-B, HTM cells on glass and PPA substrates responded in a similar fashion to other cell types previously studied (Spector, et al., (1983) Science 219:493-495, Wakatsuki, et al., (2001) Journal of Cell Science 114:1025-1036, Coue, et al., (1987) Febs Letters 213:316-318; Cha, et al., (2004) J Cell Sci 117:3353-3365). Lat-B disrupted the dynamic process of actin filament maintenance and the actin polymerization process rapidly shifted towards net depolymerization. […] These strands resembled retraction fibers observed during mitosis (Sanger, et al., (1984) Cell Tissue Res 237:409-417). Similar cable-like filaments have also been reported by Evanko, et. al., (J Histochem Cytochem (2009) 57:1041-1060).

Protocol for myocilin: Protein concentration is assessed using the Bradford protein assay. Samples of 10 μg are electrophoresed on a 10% polyacrylamide gel and the protein transferred to nitrocellulose membranes as previously described^141. Antibodies for the proteins being detected are commercially available or publicly described. A chemiluminescent detection method is used with peroxidase linked antibodies to mouse, chick or rabbit in conjunction with the LumiGLO chemiluminesent kit. The banding pattern obtained on the x-ray film is quantified using ImageQuant software with the actin band serving as a normalized reference for protein loading. Imaging can also be done using a CCD camera without the use of x-ray film.

`C[C@@H]1C[C@H]2[C@@H]3CCC4=CC(=O)C=C[C@]4(C)[C@@]3(F)[C@@H](O)C[C@]2(C)[C@@]1(O)C(=O)CO` [dexamethasone]: the “increase in myocilin protein expression” value in the assay with myocilin was found to be 19 fold.

For the compound `C/C1=C/C(=O)O[C@@H]2C[C@@H](CC[C@H](C)/C=C\CC1)O[C@@](O)([C@@H]1CSC(=O)N1)C2` [Latrunculin B], the “modulus of the cells” value in the assay with HTM cells [1] (0.2 μM latrunculin, measured after 30 minutes, 2.0 kPa before addition) came to 0.07 kPa. Besides, the “cell resistance to deformation compared to pre-exposure levels” value with HTM cells [1] (at 30 minutes of Lat-B exposure (0.2 μM)) is “substantially decreased”. Also, the “HTM Cell Modulus on Substrates, Glass” value in the assay on HTM cells [1] (90 min recovery after 30 min 0.2 μM Lat-B and removal) is 11.0 ± 2.3 kPa; in the assay with HTM cells [1] (90 min recovery after 30 min 0.2 μM Lat-B and removal, listed as Lat-B), 11.0±2.3 kPa; in the assay with HTM cells [1] (270 min recovery after 30 min 0.2 μM Lat-B and removal) it was 2.3 ± 0.2 kPa; in the assay on HTM cells [1] (270 min recovery after 30 min 0.2 μM Lat-B and removal, listed as Lat-B) it was 2.3±0.2 kPa. Moreover, the “HTM Cell Modulus on Substrates, Homeomimetic” value in the assay with HTM cells [1] (90 min recovery after Lat-B) was determined as 2.3 ± 0.2 kPa; in the assay with HTM cells [1] (270 min recovery after Lat-B) it was 1.7 ± 0.5 kPa. Further, in the assay with HTM cells [1] (maximum, at 90 minutes of recovery from Lat-B), the “percentage difference in cell elastic modulus, PPA to HPA” value was “approximately 54%”. Besides, the “HTM Cell Modulus on Substrates, Pathomimetic” value in the assay on HTM cells [1] (90 min recovery after Lat-B) is on record as 4.0 ± 1.8 kPa; with HTM cells [1] (270 min recovery after Lat-B), 2.0 ± 0.4 kPa. The cell morphology result in the assay on HTM cells [2] (30 minutes, listed as Latrunculin) is listed as “rounding of the cells”; in the assay on HTM cells [2] (30 minutes, listed as latrunculin), “starting to round up”; in the assay on HTM cells [2] (one hour) it was “completely rounded”. Further, the “time to return to pre-exposure morphology after rinsing Lat-B” value in the assay with HTM cells [2] (glass and PPA substrates) was 60-90 minutes.
